Results: paper PMC11111408, “Concurrent inhibition of oncogenic and wild-type RAS-GTP for cancer therapy” (Nature, 2024)
Several values for one entry are separate records, joined by “and”; a condition that tells them apart may be missing. Identical values can stand only once.

Experiments:
KRAS^G12C [1] = target: T1, KRAS^G12C (Homo sapiens, UniProt P01116+P62937, G12C); experiment: Cellular RAS–CYPA binding (tri-complex formation), nano-BRET in U2OS cells; format: cell-based; parameters: expressed in transfected cells; host or cells: U2OS; settings: (95% CI)
Excerpt: (§1) KRAS4B, or other small GTPases, containing the indicated mutations were cloned in pNLF-N or pHTN plasmids for expression with an N-terminal nanoluciferase or HaloTag fusion, respectively. […] The following day, the cells were collected by Trypsin and reseeded in a white tissue culture-treated 96-well plate in OptiMem phenol red-free medium (Gibco) containing 4% FBS and a 1:1,000 dilution of NanoBRET 618 HaloTag ligand (Promega). For endpoint concentration response curves, vivazine nanoluciferase substrate was added to 1× concentration in OptiMem phenol red-free medium with 4% FBS. Varying concentrations of inhibitor were added and incubated for 1 or 4 h before the nano-BRET signal was measured on a Perkin Elmer Envision plate reader. For kinetic assays, endurazine nanoluciferase substrate was used in place of vivazine, and the plate was placed in a Cytation5 multi-mode reader pre-equilibrated to 37 °C and 5% CO2.

KRAS^G13C [2] = target: T2, KRAS^G13C (Homo sapiens, UniProt P01116+P62937, G13C); experiment: as above; format: cell-based; parameters: expressed in transfected cells; host or cells: U2OS; settings: (95% CI)
Excerpt: as §1

KRAS WT = KRAS WT (Homo sapiens, UniProt P01116+P62937); experiment: Cellular RAS–RAF (CRAF RBD) disruption, nano-BRET in U2OS cells; format: cell-based; parameters: expressed in transfected cells; host or cells: U2OS; settings: (95% CI)
Excerpt: as §1

KRAS^G12D = KRAS^G12D (Homo sapiens, UniProt P01116+P62937, G12D); experiment: as above; format: cell-based; parameters: expressed in transfected cells; host or cells: U2OS; settings: (95% CI)
Excerpt: as §1

KRAS^G12C [3] = target: T1, KRAS^G12C; experiment: as above; format: cell-based; parameters: expressed in transfected cells; host or cells: U2OS; settings: (95% CI)
Excerpt: as §1

KRAS^G12R = KRAS^G12R (Homo sapiens, UniProt P01116+P62937, G12R); experiment: as above; format: cell-based; parameters: expressed in transfected cells; host or cells: U2OS; settings: (95% CI)
Excerpt: as §1

KRAS^G13C [4] = target: T2, KRAS^G13C; experiment: as above; format: cell-based; parameters: expressed in transfected cells; host or cells: U2OS; settings: (95% CI)
Excerpt: as §1

KRAS^G12V = KRAS^G12V (Homo sapiens, UniProt P01116+P62937, G12V); experiment: KRAS–RALGDS RID binding inhibition in vitro; format: biochemical; parameters: His6-TEV (N); made in house; host or cells: BL21(DE3) Escherichia coli; TR-FRET of recombinant KRAS and RALGDS RID: scale not given here; settings: for TR-FRET of recombinant KRAS and RALGDS RID: KRAS G12V, single replicates
KRAS–SOS1 = target: T3, KRAS–SOS1 (Homo sapiens, UniProt P01116+); experiment: Cellular nano-BRET, catalytic domain of SOS1 binding to KRAS; format: cell-based; settings: in the presence of CYPA, single replicates;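 note: U2OS cells expressing partner proteins fused at the N-terminus to nanoluciferase or HaloTag, nano-BRET signal read after inhibitor exposure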
T3 construct: expressed in transfected cells; host or cells: U2OS

SMILES: CCn1c(-c2cc(N3CCN(C4CC4)CC3)cnc2[C@H](C)OC)c2c3cc(ccc31)-c1csc(n1)C[C@H](NC(=O)[C@H]1[C@@H]3COC[C@@H]31)C(=O)N1CCC[C@H](N1)C(=O)OCC(C)(C)C2 [RMC-7977]
- EC50 (KRAS^G12C [1]): 1.27 nM
- EC50 (KRAS^G13C [2]): 3.7 nM
- EC50 (KRAS WT): 34.5 nM
- EC50 (KRAS^G12D): 9.5 nM
- EC50 (KRAS^G12C [3]): 5.06 nM
- EC50 (KRAS^G12R): 21.2 nM
- EC50 (KRAS^G13C [4]): 17.2 nM
- TR-FRET of recombinant KRAS and RALGDS RID (KRAS^G12V; RMC-7977 0.005 nM with CYPA): 1.0295 and 1.03 and 1.0995 and 1.02
- TR-FRET of recombinant KRAS and RALGDS RID (KRAS^G12V; RMC-7977 0.046 nM with CYPA): 1.033 and 0.9862 and 0.9822 and 1.02
- TR-FRET of recombinant KRAS and RALGDS RID (KRAS^G12V; RMC-7977 0.412 nM with CYPA): 0.9113 and 1.003 and 0.948 and 0.8985
- TR-FRET of recombinant KRAS and RALGDS RID (KRAS^G12V; RMC-7977 1.235 nM with CYPA): 0.868 and 0.861 and 0.9113 and 0.9277
- TR-FRET of recombinant KRAS and RALGDS RID (KRAS^G12V; RMC-7977 3.704 nM with CYPA): 0.6665 and 0.6727 and 0.7087 and 0.775
- TR-FRET of recombinant KRAS and RALGDS RID (KRAS^G12V; RMC-7977 11.111 nM with CYPA): 0.4672 and 0.5503 and 0.4273 and 0.4677
- TR-FRET of recombinant KRAS and RALGDS RID (KRAS^G12V; RMC-7977 33.333 nM with CYPA): 0.2172 and 0.237 and 0.1963 and 0.1593
- TR-FRET of recombinant KRAS and RALGDS RID (KRAS^G12V; RMC-7977 100.000 nM with CYPA): 0.031 and -0.01375 and 0.0395 and 0.0045
- IC50 (KRAS^G12V; KRAS^G12V, recombinant, with CYPA): 8 nM
- Cellular nano-BRET of SOS1 (catalytic domain) binding to KRAS WT (KRAS–SOS1; RMC-7977 0.152 nM): 8.563 and 8.127 and 7.755 and 7.611 and 8.1239 and 8.058
- Cellular nano-BRET of SOS1 (catalytic domain) binding to KRAS WT (KRAS–SOS1; RMC-7977 0.457 nM): 8.149 and 7.736 and 7.651 and 7.24 and 7.671 and 7.508
- Cellular nano-BRET of SOS1 (catalytic domain) binding to KRAS WT (KRAS–SOS1; RMC-7977 1.372 nM): 7.907 and 7.747 and 7.493 and 7.384 and 7.007 and 7.17
- Cellular nano-BRET of SOS1 (catalytic domain) binding to KRAS WT (KRAS–SOS1; RMC-7977 4.115 nM): 6.922 and 7.229 and 6.471 and 6.374 and 6.52 and 6.661
- Cellular nano-BRET of SOS1 (catalytic domain) binding to KRAS WT (KRAS–SOS1; RMC-7977 12.346 nM): 6.508 and 6.709 and 6.01 and 5.988 and 6.2252 and 6.045
- Cellular nano-BRET of SOS1 (catalytic domain) binding to KRAS WT (KRAS–SOS1; RMC-7977 37.037 nM): 7.064 and 6.964 and 6.2728 and 5.9257 and 6.205 and 6.027
- Cellular nano-BRET of SOS1 (catalytic domain) binding to KRAS WT (KRAS–SOS1; RMC-7977 111.111 nM): 6.712 and 6.771 and 6.171 and 6.63 and 5.929 and 6.341
- Cellular nano-BRET of SOS1 (catalytic domain) binding to KRAS WT (KRAS–SOS1; RMC-7977 333.333 nM): 6.383 and 7.187 and 5.742 and 6.572 and 6.198 and 6.656
- Cellular nano-BRET of SOS1 (catalytic domain) binding to KRAS WT (KRAS–SOS1; RMC-7977 1000.000 nM): 6.907 and 6.939 and 5.652 and 5.948 and 6.113 and 6.236
